Earlier results as cited in US20060204442A1, “Magnetically targetable particles comprising magnetic components and biocompatible polymers for site-specific delivery of biologically active agents” (Bankruptcy Estate of Ferx, Inc., priority 2003, published 2006).

Test system: cell lines of the national Cancer Institute's Anticancer Drug Screen Panel
Conditions: Rixe et al., Biochem Pharmacol 52

IC50, published value: 0.537 µg/mL
Compound: [NH2][Pt]([NH2])([Cl])[Cl] [CDDP, cisplatin]
